The values that follow come from US11352322B2, “Cyclopropyl-amide compounds as dual LSD1/HDAC inhibitors” (Jubilant Epicore LLC, priority 2016, dated 2022).

Data set [1] concerns the target HDAC6 human recombinant enzyme (Homo sapiens (Human), UniProt Q9UBN7). Kind of data set: Histone Deacetylase Assay (BPS Biosciences), HDAC6. The class given is biochemical. The text has this:
Histone Deacetylase Assay (BPS Biosciences)
Histone deacetylase assay was done as per manufacturer's instructions.

The test system of another data set is HEL-92.1.7. As to the kind of experiment: cells. Particulars: Homo sapiens, HEL 92.1.7, 144 h, read-out: Anticancer profileration EC50 HEL-92.1.7. The protocol:
(§1) Anticancer Activity: Alamar Blue Assay
(§2) Cells were seeded at 5000 cells/per well in 96-well tissue culture plate and incubated at 37° C./5% CO2. After 16-24 hours, fresh media was added to the wells. Compounds were then (1% DMSO conc.) added to the cells at 10 concentrations ranging from 10-0.0005 uM prepared in 3-fold serial dilutions. […] Alamar Blue™ reagent was added and incubated for 1-3 hours at 37° C./5% CO2. Plates were read on fluorescence reader at 540 nm excitation, 590 nm emission wave lengths.
(§3) As described above, compounds were tested for anticancer activities in different tumor cell lines and GI50 were determined.

Another data set relates to MV-4-11. Kind of data set: cells. As to conditions: Homo sapiens, MV4-11, 144 h, read-out: Anticancer profileration EC50 MV-4-11. The method, then: as §1, §2, §3
The subject of the next data set is OCI-AML3. As to the kind of experiment: cells. Particulars: Homo sapiens, OCI-AML-3, 144 h, read-out: Anticancer profileration EC50 OCI-AML3. The method, then:
as §1, §2, §3

In the next data set the target is LSD1 (Homo sapiens (Human), UniProt O60341). As to the kind of experiment: TR-FRET Assay for LSD1. Particulars: read-out: LSD1 IC50. For orientation: In TR-FRET formats the signal depends on donor and acceptor labels being close together.
Data set [2] in a line: Metabolic stability in liver microsomes, HLM. As to conditions: 1 μM, NADPH. (Liver microsomes are vesicles of endoplasmic reticulum, rich in cytochrome P450 enzymes.)
Experimental: (§4) The microsomal suspension was prepared by adding liver microsomes to 100 mM potassium phosphate buffer (pH7.4) to give a final protein concentration of 0.5 mg/mL. The stock solution of NCE (10 mM in DMSO) was added to the microsomes to provide a final concentration of 1 μM. […] Samples were vortexed and centrifuged at 5,000 rpm for 10 min to remove proteins. Supernatant were analyzed on LC-MS/MS.
Data set [3] is described as follows: Metabolic stability in liver microsomes, MLM. Particulars: 1 μM, NADPH.
Experimental: as §4
For another data set, the system named is MM1S. As to the kind of experiment: Anticancer activity: Alamar Blue assay, MM1S. The class given is cell-based. Particulars: Homo sapiens, MM1.S, read-out: MM1S EC50. In general terms: The colour change of resazurin is a common sign of viable cells or microbes.
Data set [4] is described as follows: In vivo PK studies in mice. Also noted: species or system Male Balb/C mice. As to conditions: for C0 / Vd / Cmax / clearance / half-life / bioavailability: male, Balb/C, mouse, plasma; for clearance: read-out: Cl IV. The protocol: In Vivo PK Studies in Mice
All the animal experiments were approved by Institutional Animal Ethical Committee (IAEC/JDC/2015/72). Male Balb/C mice (n=24) were procured from Vivo Biotech, Hyderabad, India. The animals were housed in Jubilant Biosys animal house facility in a temperature (22±2° C.) and humidity (30-70%) controlled room (15 air changes/hour) with a 12:12 h light:dark cycles, had free access to rodent feed (Altromin Spezialfutter GmbH & Co. KG., Im Seelenkamp 20, D-32791, Lage, Germany) and water for one week before using for experimental purpose. Following ˜4 h fast (during the fasting period animals had free access to water) animals were divided into two groups (n=12/group). […] Post-dosing serial blood samples (100 μL, sparse sampling was done and at each time point three mice were used for blood sampling) were collected using Micropipettes (Microcaps®; catalogue number: 1-000-0500) through tail vein into polypropylene tubes containing K2.EDTA solution as an anti-coagulant at 0.25, 0.5, 1, 2, 4, 8, 10 and 24 (for oral study) and 0.12, 0.25, 0.5, 1, 2, 4, 8 and 24 (for intravenous study). Plasma was harvested by centrifuging the blood using Biofuge (Hereaus, Germany) at 1760 g for 5 min and stored frozen at −80±10° C. until analysis. Animals were allowed to access feed 2 h post-dosing.
Plasma concentration-time data of the compound was analyzed by non-compartmental method using Phoenix WinNonlin Version 6.3 (Pharsight Corporation, Mountain View, Calif.).

[5] abbreviates: PO 50 mg/kg, read-out: t1/2 PO (converted).
Setting [6] is: IV 2 mg/kg, read-out: t1/2 IV (converted).
Setting [7] is: PO 10 mg/kg, read-out: t1/2 PO (converted).

Counter-ions that a name gives are not always drawn. Like-named read-outs stand apart in the source and are kept apart here. Where only a bound is given, the exact number is not on record here.

HDAC6 human recombinant enzyme, sequence (Q9UBN7 whole entry): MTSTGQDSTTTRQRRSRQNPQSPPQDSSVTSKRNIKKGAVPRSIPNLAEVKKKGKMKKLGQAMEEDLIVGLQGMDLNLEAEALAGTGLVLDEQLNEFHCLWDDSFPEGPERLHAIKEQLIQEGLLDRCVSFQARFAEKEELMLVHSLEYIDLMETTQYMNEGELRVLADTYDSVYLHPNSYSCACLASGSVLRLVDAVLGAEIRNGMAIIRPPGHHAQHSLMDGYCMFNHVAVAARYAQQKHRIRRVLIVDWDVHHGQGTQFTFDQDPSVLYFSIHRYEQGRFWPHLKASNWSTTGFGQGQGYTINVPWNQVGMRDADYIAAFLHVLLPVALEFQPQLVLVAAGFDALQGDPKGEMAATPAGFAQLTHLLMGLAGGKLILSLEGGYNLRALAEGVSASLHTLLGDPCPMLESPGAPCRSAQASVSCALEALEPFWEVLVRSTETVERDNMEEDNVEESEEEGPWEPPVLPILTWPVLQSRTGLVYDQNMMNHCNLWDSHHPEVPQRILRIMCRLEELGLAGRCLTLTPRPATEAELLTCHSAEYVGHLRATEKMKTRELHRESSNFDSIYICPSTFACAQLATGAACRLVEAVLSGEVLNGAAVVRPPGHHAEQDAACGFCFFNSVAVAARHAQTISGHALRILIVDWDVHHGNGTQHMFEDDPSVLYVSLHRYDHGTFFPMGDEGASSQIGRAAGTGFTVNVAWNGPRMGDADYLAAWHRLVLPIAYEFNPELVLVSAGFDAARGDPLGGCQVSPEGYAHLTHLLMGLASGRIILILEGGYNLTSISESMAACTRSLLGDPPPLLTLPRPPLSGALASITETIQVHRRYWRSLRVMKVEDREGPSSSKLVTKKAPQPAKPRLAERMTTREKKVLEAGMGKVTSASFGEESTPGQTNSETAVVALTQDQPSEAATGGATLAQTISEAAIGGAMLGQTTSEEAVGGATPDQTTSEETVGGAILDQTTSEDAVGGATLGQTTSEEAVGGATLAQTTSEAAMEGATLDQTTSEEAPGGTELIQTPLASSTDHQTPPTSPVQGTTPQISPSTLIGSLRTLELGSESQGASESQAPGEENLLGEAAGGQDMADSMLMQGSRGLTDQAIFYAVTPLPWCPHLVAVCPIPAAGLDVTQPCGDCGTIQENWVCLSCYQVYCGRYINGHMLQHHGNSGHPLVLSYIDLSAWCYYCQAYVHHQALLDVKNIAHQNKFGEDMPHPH
Experimental for LSD1: TR-FRET Assay for LSD1 (Perkin Elmer)
Tranylcypromine (TCP), LSD1 inhibitor was procured from Selleckchem. […] Stop Solution containing 300 μM tranylcypromine in 1× LANCE Detection Buffer was added to the wells and incubated for 5 min at RT. Then, Detection mix containing 2 nM Eu-Ab and 50 nM ULight-Streptavidin in 1× LANCE Detection Buffer was prepared and added to the reaction mix. This mixture was incubated for 1 hour at room temperature.

On to `COc1ccc(C2CC2NCC2CCN(CCCc3ccc(C(=O)NO)cc3)CC2)cc1` (stereo not shown) [Example 51, N-hydroxy-4-(3-(4-(((2-(4-methoxyphenyl)cyclopropyl)amino)methyl)piperidin-1-yl)propyl)benzamide TFA Salt], for which the IC50 in data set [1] came out at 38 nM; on LSD1, 6 nM. For the same compound, the results for the EC50 with HEL-92.1.7, in the data set on MV-4-11 and in the data set with OCI-AML3 were 3 nM, 31 nM and 14 nM, respectively. For the same compound, the “Metabolic stability HLM % remaining in 30 min” value in [2] amounted to 74%. For the same compound, in [3], the “Metabolic stability MLM % remaining in 30 min” value amounted to 91%.

With `O=C(NO)c1ccc(CCCN2CCC(CNC3CC3c3ccc(-c4cncnc4)cc3)CC2)cc1` (stereo not shown) [Example 61, N-hydroxy-4-(3-(4-(((2-(4-(pyrimidin-5-yl)phenyl)cyclopropyl)amino)methyl)piperidin-1-yl)propyl)benzamide TFA Salt], the IC50 in [1] was 121 nM. For the same compound, in the data set with MM1S (MM1S cells), the EC50 is 49 nM. Besides, in data set [4] (IV 10 mg/kg), the “AUC IV” value turned out to be 1287 ng/mL/h, the C0 was determined as 5340 ng/mL, the Vd was found to be 30 L/kg and the clearance is 125 mL/min/kg. For the same compound, in data set [4] (PO 50 mg/kg), the “AUC PO” value turned out to be 1920 ng/mL/h. Besides, the Cmax in [4] (IV 10 mg/kg, read-out: CMax IV) is 2760 ng/mL. Moreover, the half-life in [4] (IV 10 mg/kg, read-out: t1/2 IV (converted)) was 2.8 h. The Cmax in data set [4] (PO 50 mg/kg, read-out: CMax PO) amounted to 771 ng/mL. The half-life in data set [4] (setting [5]) is 1.48 h. Moreover, the bioavailability in data set [4] (dose IV/PO 10/50 mg/kg) was 30%. The IC50 at LSD1 is 12 nM. Moreover, the “Metabolic stability HLM % remaining in 30 min” value in data set [2] amounted to 77%. Besides, in data set [3], the “Metabolic stability MLM % remaining in 30 min” value amounted to 66%.

Turning to `O=C(NO)c1ccc(CCCN2CCC(CNC3CC3c3ccc(-c4ccc(F)cc4)cc3)CC2)cc1` (stereo not shown) [Example 57, 4-(3-(4-(((2-(4′-fluoro-[1,1′-biphenyl]-4-yl)cyclopropyl)amino)methyl)piperidin-1-yl)propyl)-N-hydroxybenzamide TFA Salt], the IC50 in data set [1] came out at 59 nM. For the same compound, in [4] (IV 2 mg/kg), the “AUC IV” value amounted to 169 ng/mL/h, the C0 came out at 260 ng/mL, the Vd amounted to 28 L/kg and the clearance was 190 mL/min/kg. Further, in data set [4] (PO 10 mg/kg), the “AUC PO” value came to 677 ng/mL/h. The Cmax in data set [4] (IV 2 mg/kg, read-out: CMax IV) worked out at 254 ng/mL. In addition, in data set [4] (setting [6]), the half-life is 1.71 h. For the same compound, the Cmax in data set [4] (PO 10 mg/kg, read-out: CMax PO) came out at 217 ng/mL. In [4] (setting [7]), the half-life was 1.83 h. The compound further came in with a bioavailability in [4] (dose IV/PO 2/10 mg/kg) of 80%. Besides, at LSD1, the IC50 amounted to 21 nM. In addition, the “Metabolic stability HLM % remaining in 30 min” value in [2] is 92%. The “Metabolic stability MLM % remaining in 30 min” value in data set [3] turned out to be 75%.

For `O=C(NO)c1ccc(/C=C/C(=O)N2CCC(CN[C@@H]3C[C@H]3c3ccc(F)cc3)CC2)cc1` [Example 115A, 4-((E)-3-(4-((((1R,2S)-2-(4-fluorophenyl)cyclopropyl)amino)methyl)piperidin-1-yl)-3-oxoprop-1-en-1-yl)-N-hydroxybenzamide TFA Salt], the IC50 in [1] is 50 nM. Moreover, the EC50 in the data set on MM1S (MM1S cells) was found to be 77 nM. In addition, in data set [4] (IV 2 mg/kg), the “AUC IV” value amounted to 301 ng/mL/h, the C0 came to 452 ng/mL, the Vd was 8 L/kg and the clearance stood at 108 mL/min/kg. In addition, the “AUC PO” value in data set [4] (PO 10 mg/kg) worked out at 638 ng/mL/h. Further, in data set [4] (IV 2 mg/kg, read-out: CMax IV), the Cmax was 452 ng/mL. In addition, the half-life in data set [4] (setting [6]) is 0.87 h. In addition, in data set [4] (PO 10 mg/kg, read-out: CMax PO), the Cmax was 354 ng/mL. Further, in [4] (setting [7]), the half-life was 2.78 h. The compound further registered a bioavailability in [4] (dose IV/PO 2/10 mg/kg) of 43%. The IC50 on LSD1 is 225 nM. For the same compound, in data set [2], the “Metabolic stability HLM % remaining in 30 min” value was found to be 59%. In addition, in [3], the “Metabolic stability MLM % remaining in 30 min” value came to 90%.

With `Nc1ccccc1NC(=O)c1cnc(NCCN2CCC(CNC3CC3c3ccc(F)cc3)CC2)nc1` (stereo not shown) [Example 150], the results for the IC50 (in [1]; on LSD1) were more than 10000 nM and 16 nM, respectively. In the data set with MM1S (MM1S cells), the EC50 was found to be 411 nM. Also, the “Metabolic stability HLM % remaining in 30 min” value in data set [2] is >95/>95%. The “Metabolic stability MLM % remaining in 30 min” value in data set [3] was >95/>95%.

On to `O=C(NO)c1ccc(CN2CCc3ccc(CNC4CC4c4ccc(F)cc4)cc3C2)cc1` (stereo not shown) [Example 79, 4-((7-(((2-(4-fluorophenyl)cyclopropyl)amino)methyl)-3,4-dihydroisoquinolin-2(1H)-yl)methyl)-N-hydroxybenzamide TFA Salt], for which the IC50 in data set [1] is 24 nM; on LSD1, 79 nM. The EC50 with MM1S is 39 nM. Further, the “Metabolic stability HLM % remaining in 30 min” value in data set [2] is given as 18%. The “Metabolic stability MLM % remaining in 30 min” value in [3] was 6%.

As to `Cn1cc(-c2ccc(C3CC3NCC3CCN(Cc4ccc(C(=O)Nc5ccccc5N)cc4)CC3)cc2)cn1` (stereo not shown) [Example 142, N-(2-aminophenyl)-4-((4-(((2-(4-(1-methyl-1H-pyrazol-4-yl)phenyl)cyclopropyl)amino)methyl)piperidin-1-yl)methyl)benzamide TFA Salt], the IC50 was more than 10000 nM in data set [1] and 12 nM at LSD1. The EC50 in the data set on MM1S (MM1S cells) came to 120 nM. For the same compound, in data set [4] (IV 2 mg/kg), the “AUC IV” value is 357 ng/mL/h. Further, the “AUC PO” value in data set [4] (PO 50 mg/kg) was 3217 ng/mL/h. This compound showed a C0 in data set [4] (IV 2 mg/kg) of 198 ng/mL. Moreover, the Vd in [4] (IV 2 mg/kg) worked out at 25 L/kg. The Cmax in [4] (IV 2 mg/kg, read-out: CMax IV) worked out at 150 ng/mL; in data set [4] (PO 50 mg/kg, read-out: CMax PO), 555 ng/mL. Also, in data set [4] (IV 2 mg/kg), the clearance was determined as 88 mL/min/kg. Further, the half-life in data set [4] (setting [6]) was 12.6 h; in data set [4] (setting [5]) it was 6.7 h. In data set [4] (dose IV/PO 2/50 mg/kg), this compound had a bioavailability of 36%. For the same compound, in data set [2], the “Metabolic stability HLM % remaining in 30 min” value was 72%. In addition, in [3], the “Metabolic stability MLM % remaining in 30 min” value was 52%.

Turning to `O=C(NO)c1cc2c(s1)CCN(C(=O)CCCN1CCC(CNC3CC3c3ccc(F)cc3)CC1)C2` (stereo not shown) [Example 106, 5-(4-(4-(((2-(4-fluorophenyl)cyclopropyl)amino)methyl)piperidin-1-yl)butanoyl)-N-hydroxy-4,5,6,7-tetrahydrothieno[3,2-c]pyridine-2-carboxamide TFA Salt], the 50% inhibitory concentration (IC50) worked out at 35 nM in data set [1] and 26 nM on LSD1. The EC50 in the data set on MM1S is 14 nM. For the same compound, in [2], the “Metabolic stability HLM % remaining in 30 min” value came to 74%. The “Metabolic stability MLM % remaining in 30 min” value in data set [3] was determined as 92%.

On to `Nc1ccccc1NC(=O)c1ccc(/C=C/C(=O)N2CCC(CNC3CC3c3ccc(F)cc3)CC2)cc1` (stereo not shown) [Example 156], for which the concentration for half-maximal inhibition (IC50) in data set [1] was more than 10000 nM; at LSD1, 186 nM. Also, in the data set on MM1S (MM1S cells), the EC50 is 97 nM. Besides, in data set [2], the “Metabolic stability HLM % remaining in 30 min” value is reported as 58%. In addition, the “Metabolic stability MLM % remaining in 30 min” value in [3] was 49%.

Take `CC(NC1CC1c1ccccc1)[C@H]1CC[C@H](C(=O)NO)CC1` (stereo partly drawn) [Example 34, (1S,4R)—N-hydroxy-4-((1S)-1-((2-phenylcyclopropyl)amino)ethyl)cyclohexanecarboxamide TFA Salt]: the IC50 in data set [1] is more than 1000 nM; on LSD1 it was 31 nM. For the same compound, the EC50 in the data set with MM1S (MM1S cells) stood at 94 nM. Moreover, in [2], the “Metabolic stability HLM % remaining in 30 min” value stood at 90%. Also, the “Metabolic stability MLM % remaining in 30 min” value in data set [3] turned out to be 79%.

What is called IC50 is the point on the concentration scale where inhibition reaches its midpoint. The Vd is the apparent volume that relates the amount in the body to the concentration in plasma or blood. What is called Cmax is the highest concentration seen after dosing. The term bioavailability denotes dose-corrected exposure relative to a reference, in per cent.
